The record followed here is paper PMC5326599 (Antiviral research, 2017).

For series [1], the system named is influenza A/Solomon Islands/3/2006 (H1N1) virus. On the set-up: species or system BALB/c mice. Conditions: mouse, in vivo.
Series [2] deals with A/Udorn/72 (H3N2) virus (M2-WT). Briefly: microbe, parasite or virus in culture. Format: cell-based. Conditions: Influenza A virus, H3N2, MDCK, read-out: Antiviral Efficacy EC50, A/Udorn/72 (H3N2) M2-WT.
For series [3] the following is noted: mouse, in vivo.
The test system of series [4] is MDCK cells. Conditions: read-out: Cytotoxicity CC50, neutral red, 24 h.

“And” between values parts separate entries of the source, which are not always exact repeats. Identical values can stand only once. Marks after values point to notes of the source that are not given here.

In the case of `NC12CC3CC(CC(C3)C1)C2` [Amantadine (1), amantadine], in series [1], the “MDD ± SD (mean day of death)” value is 13.0 ± 6.4 days and 9.4 ± 1.9 days; the Survivors/Total is […]; the “survival rate / protection” value is […]. The EC50 in series [2] amounted to […].

One may read the CC50 as the concentration that lowers cell viability or growth by half. For the compound `NC1CCC2(CC1)C1CC3CC(C1)CC2C3` (stereo not drawn) [Compound 3, spiroadamantane amine], in series [1], the Survivors/Total is 7/10^*** and 1/10 and 0/10; the “survival rate / protection” value is 70%. In series [3], the “body weight difference compared to placebos and normal control animals” value is 3%; the tolerability entry is reported as “well tolerated”. Besides, in series [4], the cytotoxic concentration (CC50) turned out to be 27.6 ± 0.5 µM.
